Experimental data published in patent US9365489B2, “Nitrooxy alkanoic acids and derivatives thereof in feed for reducing methane emission in ruminants, and/or to improve ruminant performance” (priority 2009, dated 2016).
Marks after values point to notes of the source that are not given here.

System: rumen fermentation parameters
Experiment: In vivo test: rumen volatile fatty acids and ammonia nitrogen
Conditions: rumen of sheep; for iso-valeric (VFA profile): control 1.60; for Valeric (VFA profile): control 1.69; for Butiric (VFA profile): control 3.69; for C2/C3 (acetate to propionate ratio): control 4.59; for iso-butiric (VFA profile): control 6.73; for Propionic (VFA profile): control 15.7; for NH3—N (ammonia Nitrogen concentration): control 42.5; for Acetic (VFA profile): control 70.6; for Total volatile fatty acid concentration: control 111.3
From the text: The experimental design consisted of a cross-over design with 2 sheep per treatment in each period. The trial consisted in 3 consecutive periods of: 14 days of adaptation to the dose plus three consecutive days of methane measurements in chambers. This 14 days adaptation phase was established as the period necessary for wash out between different doses assayed in consecutive periods. During the last two days of methane measurements in chambers rumen contents samples were collected two hours after the morning feeding, sub sampled and immediately frozen prior DNA extraction and determination of volatile fatty acids and ammonia nitrogen concentration. Experimental animals were randomly allocated in three sub-groups of 2 animals and were assigned one of the three treatments (control, dose 1 and dose 2). The 3 sub-groups started the adaptation period with a gap of three days so they had the same number of adaptation days prior to methane measurement in the chambers. Each animal was held in cages with constant access to fresh water. The diet provided to the animals consisted of alfalfa hay chopped at 15 to 20 cm and concentrate in a proportion 1:1 at approximately 1.1 times the energy requirements maintenance level (Prieto et al, 1990) plus mineral-vitamin supplement. Fresh matter intake was monitored daily for each animal throughout the trial. The diet was provided to animals in two equal meals at 9.00 h and 14.00 h.
The additive was provided twice a day through the ruminal cannula at the same time as the diet. The corresponding amount to each dose was added into 10 grams of grounded concentrate and wrapped in cellulose paper immediately before it was placed in the rumen. In order to avoid the volatility of the active molecule, both additives were kept in a cold room at 4° C. where the daily process of dispensing it in the cellulose bags was carried out.
The doses were 50 (dose 1) and 500 (dose 2) mg/animal per day. The higher dose was reached after 3 days of gradual increases (50, 200 and 500 mg), so the whole adaptation period was consequently extended for 3 more days.
Volatile fatty acids were analysed by gas chromatography and ammonia N concentration by colorimetry according to (Cantalapiedra-Híjar et al. Journal of Animal Science. 87, 622-631, 2009).
Individual methane emissions, VFA profiles, ratio of acetate to propionate, ammonia N concentration, and log10 transformations of concentration of total bacteria, total protozoa and methanogenic archaea were analyzed for the following effects: additive dose, day of measurement, and their interaction using a repeated measures analysis of variance under the cross-over design arrangement of the experiment. The standard error of the mean (SEM) was computed for each analysis. No significant effect of the measuring day or its interaction with additive dose was detected in either experiments, so only the effect of the dose is included in the tables. Means were further compared using a least significant difference (LSD) procedure. The SPSS for Windows, version 14.0 (2005; SPSS Inc., Chicago, Ill.) was used for data entry and statistical analysis.

Q: For `CCOC(=O)CCO[N+](=O)[O-]` [Ethyl-3-nitrooxy propionate], which “iso-valeric (VFA profile)” value (Dose 1 (50 mg/animal per day)) is on record?
A: 1.50 mol/100 mol

Q: What about the “Valeric (VFA profile)” value (Dose 1 (50 mg/animal per day)) of the same compound?
A: 1.55^a mol/100 mol

Q: What about the “Butiric (VFA profile)” value (Dose 1 (50 mg/animal per day)) of the same compound?
A: 3.50 mol/100 mol

Q: And the “C2/C3 (acetate to propionate ratio)” value (Dose 1 (50 mg/animal per day))?
A: 4.26^ab

Q: And the “iso-butiric (VFA profile)” value (Dose 1 (50 mg/animal per day))?
A: 5.57^a mol/100 mol

Q: What about the “Propionic (VFA profile)” value (Dose 1 (50 mg/animal per day)) of the same compound?
A: 16.8^ab mol/100 mol

Q: What about the “NH3—N (ammonia Nitrogen concentration)” value (Dose 1 (50 mg/animal per day)) of the same compound?
A: 40.5 mg/100 ml

Q: And the “Acetic (VFA profile)” value (Dose 1 (50 mg/animal per day))?
A: 71.0^a mol/100 mol

Q: What about the “Total volatile fatty acid concentration” value (Dose 1 (50 mg/animal per day)) of the same compound?
A: 123.3^a mmol/l

Q: And the “iso-valeric (VFA profile)” value (Dose 2 (500 mg/animal per day))?
A: 1.76 mol/100 mol

Q: And the “Valeric (VFA profile)” value (Dose 2 (500 mg/animal per day))?
A: 2.42^b mol/100 mol

Q: And the “Butiric (VFA profile)” value (Dose 2 (500 mg/animal per day))?
A: 3.47 mol/100 mol

Q: And the “C2/C3 (acetate to propionate ratio)” value (Dose 2 (500 mg/animal per day))?
A: 3.57^b

Q: What about the “iso-butiric (VFA profile)” value (Dose 2 (500 mg/animal per day)) of the same compound?
A: 8.06^b mol/100 mol

Q: What about the “Propionic (VFA profile)” value (Dose 2 (500 mg/animal per day)) of the same compound?
A: 18.8^b mol/100 mol

Q: What about the “NH3—N (ammonia Nitrogen concentration)” value (Dose 2 (500 mg/animal per day)) of the same compound?
A: 40.1 mg/100 ml

Q: And the “Acetic (VFA profile)” value (Dose 2 (500 mg/animal per day))?
A: 65.5^b mol/100 mol

Q: And the “Total volatile fatty acid concentration” value (Dose 2 (500 mg/animal per day))?
A: 104.1^b mmol/l
